In ChEMBL document CHEMBL1154884, “Synthesis and biological evaluation of triazol-4-ylphenyl-bearing histone deacetylase inhibitors as anticancer agents” (J Med Chem, 2010):

Columns and labels:
Histone deacetylase 8 = molecular target: T1, Histone deacetylase 8 (Homo sapiens, UniProt Q9BY41)
T1 sequence (Q9BY41 whole entry): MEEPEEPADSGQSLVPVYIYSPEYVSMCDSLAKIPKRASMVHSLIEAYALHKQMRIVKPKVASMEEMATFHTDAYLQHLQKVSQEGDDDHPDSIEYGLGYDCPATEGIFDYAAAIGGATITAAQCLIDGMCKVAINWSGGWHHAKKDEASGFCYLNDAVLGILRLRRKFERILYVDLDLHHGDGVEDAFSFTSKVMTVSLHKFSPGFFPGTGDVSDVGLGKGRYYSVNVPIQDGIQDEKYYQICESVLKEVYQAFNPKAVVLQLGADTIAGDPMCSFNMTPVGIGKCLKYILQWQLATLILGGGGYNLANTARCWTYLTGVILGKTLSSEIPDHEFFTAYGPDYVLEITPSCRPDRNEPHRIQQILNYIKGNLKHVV
Description: Inhibition of HDAC8 assessed as blockade of decorboxylation of carboxyfluorescein labeled acetylated peptide substrate after 17 hrs

Histone deacetylase 3 = Histone deacetylase 3 (Homo sapiens, UniProt O15379)
Sequence of Histone deacetylase 3 (O15379 whole entry): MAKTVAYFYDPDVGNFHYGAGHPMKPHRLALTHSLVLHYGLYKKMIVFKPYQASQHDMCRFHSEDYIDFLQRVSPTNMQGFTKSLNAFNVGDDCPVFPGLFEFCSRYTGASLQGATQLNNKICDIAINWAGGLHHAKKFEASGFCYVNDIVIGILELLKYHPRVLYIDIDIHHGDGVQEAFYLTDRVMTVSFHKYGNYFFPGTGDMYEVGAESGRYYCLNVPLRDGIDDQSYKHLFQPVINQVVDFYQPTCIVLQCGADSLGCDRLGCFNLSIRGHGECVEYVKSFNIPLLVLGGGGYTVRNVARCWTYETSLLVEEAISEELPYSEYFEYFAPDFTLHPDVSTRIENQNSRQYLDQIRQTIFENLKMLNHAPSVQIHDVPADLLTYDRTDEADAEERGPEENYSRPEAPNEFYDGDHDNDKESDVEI
Description: Inhibition of HDAC3 assessed as blockade of decorboxylation of carboxyfluorescein labeled acetylated peptide substrate after 17 hrs

MIA PaCa-2 = assay: cells; settings: Homo sapiens, MIA PaCa-2, 72 h
[1] = molecular target: T2, Polyamine deacetylase HDAC10 (Homo sapiens, UniProt Q969S8)
T2 sequence (Q969S8 whole entry): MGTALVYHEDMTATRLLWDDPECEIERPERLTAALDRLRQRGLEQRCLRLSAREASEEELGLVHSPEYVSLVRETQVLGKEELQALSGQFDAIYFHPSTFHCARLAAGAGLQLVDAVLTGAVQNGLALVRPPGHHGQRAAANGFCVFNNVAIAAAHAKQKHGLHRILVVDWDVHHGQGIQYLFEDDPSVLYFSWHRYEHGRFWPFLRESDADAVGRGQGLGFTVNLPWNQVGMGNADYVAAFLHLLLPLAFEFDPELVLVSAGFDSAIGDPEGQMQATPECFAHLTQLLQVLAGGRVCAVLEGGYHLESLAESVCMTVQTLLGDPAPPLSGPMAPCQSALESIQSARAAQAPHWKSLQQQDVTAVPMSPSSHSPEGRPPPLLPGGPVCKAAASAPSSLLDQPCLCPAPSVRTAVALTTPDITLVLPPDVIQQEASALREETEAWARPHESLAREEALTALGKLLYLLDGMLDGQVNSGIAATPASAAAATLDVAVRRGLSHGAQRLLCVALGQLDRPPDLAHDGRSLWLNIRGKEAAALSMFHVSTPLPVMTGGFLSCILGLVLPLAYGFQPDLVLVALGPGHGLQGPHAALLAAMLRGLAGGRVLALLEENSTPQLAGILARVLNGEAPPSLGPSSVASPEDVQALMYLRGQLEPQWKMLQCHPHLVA
Description: Inhibition of HDAC10 assessed as blockade of decorboxylation of carboxyfluorescein labeled acetylated peptide substrate after 17 hrs

cells [2] = settings: Homo sapiens, SU.86.86, 72 h
[3] = molecular target: T3, Protein deacetylase HDAC6 (Homo sapiens, UniProt Q9UBN7)
T3 sequence (Q9UBN7 whole entry): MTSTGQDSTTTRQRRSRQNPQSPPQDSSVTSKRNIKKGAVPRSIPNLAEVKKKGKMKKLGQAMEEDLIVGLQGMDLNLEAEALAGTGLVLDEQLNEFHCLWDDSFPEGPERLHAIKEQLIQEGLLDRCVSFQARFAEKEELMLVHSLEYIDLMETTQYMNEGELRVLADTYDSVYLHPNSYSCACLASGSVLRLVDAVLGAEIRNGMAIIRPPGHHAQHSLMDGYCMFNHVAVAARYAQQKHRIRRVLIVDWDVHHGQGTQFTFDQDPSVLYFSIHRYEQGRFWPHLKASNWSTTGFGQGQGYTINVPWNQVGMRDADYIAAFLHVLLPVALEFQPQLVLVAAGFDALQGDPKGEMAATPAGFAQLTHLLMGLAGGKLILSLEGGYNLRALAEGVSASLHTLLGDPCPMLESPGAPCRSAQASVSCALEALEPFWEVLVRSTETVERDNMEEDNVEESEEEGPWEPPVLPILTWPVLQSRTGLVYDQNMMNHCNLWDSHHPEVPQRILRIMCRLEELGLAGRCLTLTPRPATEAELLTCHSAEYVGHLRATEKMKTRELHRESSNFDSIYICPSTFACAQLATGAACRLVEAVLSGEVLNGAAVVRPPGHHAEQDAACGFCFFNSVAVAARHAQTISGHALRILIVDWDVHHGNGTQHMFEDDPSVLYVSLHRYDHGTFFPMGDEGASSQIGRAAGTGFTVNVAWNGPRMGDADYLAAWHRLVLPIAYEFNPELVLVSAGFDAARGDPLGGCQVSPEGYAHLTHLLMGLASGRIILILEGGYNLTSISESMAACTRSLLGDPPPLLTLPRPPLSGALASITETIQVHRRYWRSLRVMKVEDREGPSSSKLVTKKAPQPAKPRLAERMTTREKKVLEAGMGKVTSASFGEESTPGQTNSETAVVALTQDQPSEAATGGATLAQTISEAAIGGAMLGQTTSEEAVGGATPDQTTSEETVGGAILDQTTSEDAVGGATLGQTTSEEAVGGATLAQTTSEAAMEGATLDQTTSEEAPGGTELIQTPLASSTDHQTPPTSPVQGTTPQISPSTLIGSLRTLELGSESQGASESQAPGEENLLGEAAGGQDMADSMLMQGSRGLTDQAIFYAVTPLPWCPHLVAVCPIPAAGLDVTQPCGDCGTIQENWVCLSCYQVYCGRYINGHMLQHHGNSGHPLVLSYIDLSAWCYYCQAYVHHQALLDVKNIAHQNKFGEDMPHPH
Description: Inhibition of HDAC6 assessed as blockade of decorboxylation of carboxyfluorescein labeled acetylated peptide substrate after 17 hrs

HuP-T3 = assay: cells; settings: Homo sapiens, HuP-T3, 72 h
cells [4] = settings: Homo sapiens, Panc 04.03, 72 h
BXPC-3 = assay: cells; settings: Homo sapiens, BXPC-3, 72 h
Histone deacetylase 2 = Histone deacetylase 2 (Homo sapiens, UniProt Q92769)
Sequence of Histone deacetylase 2 (Q92769 whole entry): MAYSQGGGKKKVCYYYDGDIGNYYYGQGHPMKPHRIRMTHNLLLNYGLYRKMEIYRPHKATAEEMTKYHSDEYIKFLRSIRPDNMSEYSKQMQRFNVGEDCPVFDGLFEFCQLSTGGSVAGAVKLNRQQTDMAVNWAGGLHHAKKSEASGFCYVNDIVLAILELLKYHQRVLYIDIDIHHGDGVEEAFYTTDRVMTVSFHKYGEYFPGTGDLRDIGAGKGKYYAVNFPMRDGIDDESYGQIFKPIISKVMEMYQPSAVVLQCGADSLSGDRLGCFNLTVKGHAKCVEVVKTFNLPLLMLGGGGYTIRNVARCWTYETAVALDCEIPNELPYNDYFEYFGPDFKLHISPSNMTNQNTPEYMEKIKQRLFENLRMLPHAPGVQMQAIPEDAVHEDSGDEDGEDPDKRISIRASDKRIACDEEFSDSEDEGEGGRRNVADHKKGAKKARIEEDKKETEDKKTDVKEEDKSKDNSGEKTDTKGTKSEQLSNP
Description: Inhibition of HDAC2 assessed as blockade of decorboxylation of carboxyfluorescein labeled acetylated peptide substrate after 17 hrs

Histone deacetylase 1 = Histone deacetylase 1 (Homo sapiens, UniProt Q13547)
Sequence of Histone deacetylase 1 (Q13547 whole entry): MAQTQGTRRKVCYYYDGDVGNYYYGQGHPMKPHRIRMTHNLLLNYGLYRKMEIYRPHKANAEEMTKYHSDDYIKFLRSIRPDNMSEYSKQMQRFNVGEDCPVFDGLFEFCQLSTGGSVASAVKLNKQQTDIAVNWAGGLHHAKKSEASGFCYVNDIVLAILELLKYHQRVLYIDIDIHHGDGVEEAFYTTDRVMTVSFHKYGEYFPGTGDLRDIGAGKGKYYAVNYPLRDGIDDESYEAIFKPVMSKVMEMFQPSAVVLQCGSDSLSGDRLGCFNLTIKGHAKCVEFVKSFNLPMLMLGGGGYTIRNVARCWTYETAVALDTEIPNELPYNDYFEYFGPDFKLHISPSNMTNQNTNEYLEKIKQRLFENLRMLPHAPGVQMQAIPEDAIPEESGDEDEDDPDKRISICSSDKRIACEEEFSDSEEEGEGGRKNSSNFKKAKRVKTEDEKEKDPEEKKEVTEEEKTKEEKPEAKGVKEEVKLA
Description: Inhibition of HDAC1 assessed as blockade of decorboxylation of carboxyfluorescein labeled acetylated peptide substrate after 17 hrs

IC50 (Histone deacetylase 8) [nM] | IC50 [1] [nM] | IC50 [3] [nM] | IC50 (Histone deacetylase 2) [nM] | IC50 (Histone deacetylase 1) [nM] | Structure (SMILES) | IC50 (Histone deacetylase 3) [nM] | IC50 (MIA PaCa-2) [nM] | IC50 (cells [2]) [nM] | IC50 (HuP-T3) [nM] | IC50 (cells [4]) [nM] | IC50 (BXPC-3) [nM]
> 30000 | > 30000 | > 30000 |  |  | Nc1ccccc1NC(=O)CCCCCCC(=O)Nc1cccc(-n2cc(-c3ccccc3)nn2)c1 | 122 | > 50000 | 32000 | > 50000 | > 50000 | > 50000
5220 | 14.5 | 2.9 | 28.5 | 8.7 | O=C(CCCCCCC(=O)Nc1cccc(-c2cn(-c3ccc(C(F)(F)F)cc3)nn2)c1)NO |  |  |  |  |  | 
1320 | 5.8 | 1.9 | 27.8 | 5.7 | O=C(CCCCCCC(=O)Nc1cccc(-c2cn(-c3cc(CO)cc(CO)c3)nn2)c1)NO |  |  |  |  |  | 
12000 | 32.8 | 8.4 | 60 | 31.9 | O=C(CCCCCCC(=O)Nc1cccc(-c2cn(-c3ccc(F)cc3)nn2)c1)NO |  |  |  |  |  | 
 |  |  |  | 5.3 | O=C(CCCCCCC(=O)Nc1cccc(-c2cn(-c3cc(F)cc(F)c3)nn2)c1)NO |  |  |  |  |  | 
4180 | 6.8 | 3.1 | 25.1 | 4.6 | O=C(CCCCCCC(=O)Nc1cccc(-n2cc(-c3ccccc3)nn2)c1)NO |  |  |  |  |  | 
 |  |  |  |  | O=C(CCCCCCC(=O)Nc1cccc(-c2cn(-c3ccccc3)nn2)c1)NO |  |  |  |  | < 500 | 

Structure (SMILES) | IC50 (Histone deacetylase 8) [nM] | IC50 [1] [nM] | IC50 [3] [nM] | IC50 (Histone deacetylase 2) [nM] | IC50 (Histone deacetylase 1) [nM] | IC50 (Histone deacetylase 3) [nM] | IC50 (MIA PaCa-2) [nM] | IC50 (cells [2]) [nM] | IC50 (HuP-T3) [nM] | IC50 (cells [4]) [nM] | IC50 (BXPC-3) [nM]
O=C(CCCCCCC(=O)Nc1cccc(-c2cn(-c3ccc(I)cc3)nn2)c1)NO | > 30000 | 10.7 | 2.2 | 24.6 | 8 |  | 2330 | 7700 | 1400 | 2340 | 1100
O=C(CCCCCCC(=O)Nc1cccc(-c2cn(C3CCCCC3)nn2)c1)NO | 1190 | 9.8 | 3.3 | 27.5 | 8.6 | 3.7 | 100 | 100 | 400 | 500 | 4000
O=C(CCCCCCC(=O)Nc1cccc(-n2cc(C3CCCCC3)nn2)c1)NO | 2750 | 16.6 | 4.3 | 48.2 | 12.1 | 5.3 | 100 | 900 | 400 | 500 | 2000
